The source made the active and inactive calls. The calls are words filed in the database; no cut-off is given here.
Tests used:
[1] = system: 4T1; test: Cell cycle arrest in mouse 4T1 cells assessed as accumulation of cells at G1 phase at 7.72 uM incubated for 72 hrs by flow cytometry; type: functional
[2] = AUC (0 to t) in Wistar rat at 15 mg/kg, ip measured upto 24 hrs by HPLC analysis; type: ADME, organism-based; parameters: dose 15 mg/kg, time < 24 hrs, route ip; settings: in vivo
[3] = Half life in Wistar rat at 15 mg/kg, ip measured upto 24 hrs by HPLC analysis; type: ADME, organism-based; settings: in vivo
[4] = Tmax in Wistar rat at 15 mg/kg, ip measured upto 24 hrs by HPLC analysis; type: ADME, organism-based; settings: in vivo
[5] = AUC (0 to infinity) in Wistar rat at 15 mg/kg, ip measured upto 24 hrs by HPLC analysis; type: ADME, organism-based; parameters: dose 15 mg/kg, time < 24 hrs, route ip; settings: in vivo
[6] = system: MDA-MB-453; test: Cytotoxicity against human MDA-MB-453 cells assessed as inhibition of cell growth incubated for 72 hrs by MTT assay; type: functional, cell-based; settings: MDA-MB-453, 72 h
[7] = system: 4T1; test: Antitumor activity against mouse 4T1 cells implanted in BALB/c mouse assessed as increase in number of lung nodules at 15 mg/kg, ip measured for 7 days by H and E staining based assay; type: functional, organism-based; settings: time 7.0 day
[8] = system: MDA-MB-231; test: Cytotoxicity against wild type human MDA-MB-231 cells assessed as reduction in cell viability incubated for 72 hrs by MTT assay; type: functional, cell-based; settings: MDA-MB-231, 72 h
[9] = system: 4T1; test: Antitumor activity against mouse 4T1 cells implanted in BALB/c mouse assessed as tumor growth inhibition at 15 mg/kg, ip measured on day 7; type: functional; settings: 4T1, 168 h, time 7 day, read-out: TGI
[10] = system: 4T1; test: Antitumor activity against mouse 4T1 cells implanted in BALB/c mouse assessed as reduction in tumor volume at 15 mg/kg, ip administered 5 times a week for 21 days (reference value: 52.25 +/-13.24 mm3); type: functional; settings: time 21 day
[11] = system: 4T1; test: Antitumor activity against mouse 4T1 cells implanted in BALB/c mouse assessed as tumor growth inhibition at 15 mg/kg, ip measured on day 21; type: functional; settings: 4T1, 504 h, time 21 day, read-out: TGI
[12] = Toxicity in BALB/c mouse implanted with mouse 4T1 cells assessed as spleen damage at 5 to 15 mg/kg, ip measured after 21 days by H and E staining based assay; type: organism-based; settings: in vivo, 504 h, dose 5-15 mg/kg, time 21 day
[13] = Toxicity in BALB/c mouse implanted with mouse 4T1 cells assessed as liver damage at 5 to 15 mg/kg, ip measured after 21 days by H and E staining based assay; type: organism-based; settings: in vivo, 504 h, dose 5-15 mg/kg, time 21 day
[14] = system: 4T1; test: Cell cycle arrest in mouse 4T1 cells assessed as accumulation of cells at G1 phase at 1.54 uM incubated for 72 hrs by flow cytometry; type: functional
[15] = system: MCF7; test: Cytotoxicity against human MCF7 cells assessed as inhibition of cell growth incubated for 72 hrs by MTT assay; type: functional, cell-based; settings: MCF7, 72 h
[16] = system: 4T1; test: Antitumor activity against mouse 4T1 cells implanted in BALB/c mouse assessed as reduction in tumor volume at 5 mg/kg, ip administered 5 times a week for 21 days (reference value: 51.91 +/-7.45 mm3); type: functional; settings: time 21 day
[17] = system: 4T1; test: Cytotoxicity against mouse 4T1 cells assessed as inhibition of cell growth incubated for 72 hrs by MTT assay; type: functional, cell-based; settings: 4T1, 72 h
[18] = Apparent volume of distribution in Wistar rat at 15 mg/kg, ip measured upto 24 hrs by HPLC analysis; type: ADME, organism-based; settings: in vivo
[19] = Cmax in Wistar rat at 15 mg/kg, ip measured upto 24 hrs by HPLC analysis; type: ADME, organism-based; parameters: dose 15 mg/kg, time < 24 hrs, route ip; settings: in vivo
[20] = system: 4T1; test: Antitumor activity against mouse 4T1 cells implanted in BALB/c mouse assessed as increase in apoptosis in tumor tissue at 5 to 15 mg/kg, ip by TUNEL staining based microscopic analysis; type: functional, organism-based; settings: dose 5-15 mg/kg
[21] = system: 4T1; test: Antitumor activity against mouse 4T1 cells implanted in BALB/c mouse assessed as reduction in tumor weight at 15 mg/kg, ip administered 5 times a week for 21 days; type: functional; settings: time 21 day
[22] = system: MDA-MB-231; test: Cytotoxicity against human MDA-MB-231 cells assessed as inhibition of cell growth incubated for 72 hrs by MTT assay; type: functional, cell-based; settings: MDA-MB-231, 72 h
[23] = MRT (0 to infinity) in Wistar rat at 15 mg/kg, ip measured upto 24 hrs by HPLC analysis; type: ADME, organism-based; settings: in vivo
[24] = Cytotoxicity against human HCEC cells assessed as inhibition of cell growth incubated for 72 hrs by MTT assay; type: toxicity, cell-based; settings: human, HCEC cells
[25] = Cytotoxicity against human MCF-10A cells assessed as inhibition of cell growth incubated for 72 hrs by MTT assay; type: toxicity, cell-based
[26] = Apparent oral clearance in Wistar rat at 15 mg/kg, ip measured upto 24 hrs by HPLC analysis; type: ADME, organism-based; settings: in vivo
[27] = system: 4T1; test: Antitumor activity against mouse 4T1 cells implanted in BALB/c mouse assessed as tumor growth inhibition at 15 mg/kg, ip measured on day 14; type: functional; settings: 4T1, 336 h, time 14 day, read-out: TGI
[28] = Toxicity in BALB/c mouse implanted with mouse 4T1 cells assessed as heart damage at 5 to 15 mg/kg, ip measured after 21 days by H and E staining based assay; type: organism-based; settings: in vivo, 504 h, dose 5-15 mg/kg, time 21 day
[29] = Toxicity in BALB/c mouse implanted with mouse 4T1 cells assessed as kidney damage at 5 to 15 mg/kg, ip measured after 21 days by H and E staining based assay; type: organism-based; settings: in vivo, 504 h, dose 5-15 mg/kg, time 21 day
[30] = system: 4T1; test: Induction of apoptosis in mouse 4T1 cells at 1.54 uM incubated for 72 hrs by annexin/PI staining based flow cytometry analysis (reference value: 1.35%); type: functional
[31] = system: 4T1; test: Cell cycle arrest in mouse 4T1 cells assessed as accumulation of cells at G1 phase at 38.6 uM incubated for 72 hrs by flow cytometry; type: functional
[32] = AUMC (0 to infinity) in Wistar rat at 15 mg/kg, ip measured upto 24 hrs by HPLC analysis; type: ADME, organism-based; settings: in vivo
[33] = Cytotoxicity against Oxaliplatin-resistant human MDA-MB-231 cell assessed as reduction in cell viability incubated for 72 hrs by MTT assay; type: functional, cell-based; settings: Oxaliplatin-resistant MDA-MB-231 cell
[34] = system: 4T1; test: Antitumor activity against mouse 4T1 cells implanted in BALB/c mouse assessed as reduction in Ki-67 expression in tumor tissue at 5 to 15 mg/kg, ip measured for 21 days by fluorescence based microscopic analysis; type: functional, organism-based; settings: dose 5-15 mg/kg, time 21.0 day
[35] = molecular target: T1, Protein deacetylase HDAC6 (Homo sapiens, UniProt Q9UBN7); test: Inhibition of HDAC6 (unknown origin)
T1 sequence (Q9UBN7 whole entry): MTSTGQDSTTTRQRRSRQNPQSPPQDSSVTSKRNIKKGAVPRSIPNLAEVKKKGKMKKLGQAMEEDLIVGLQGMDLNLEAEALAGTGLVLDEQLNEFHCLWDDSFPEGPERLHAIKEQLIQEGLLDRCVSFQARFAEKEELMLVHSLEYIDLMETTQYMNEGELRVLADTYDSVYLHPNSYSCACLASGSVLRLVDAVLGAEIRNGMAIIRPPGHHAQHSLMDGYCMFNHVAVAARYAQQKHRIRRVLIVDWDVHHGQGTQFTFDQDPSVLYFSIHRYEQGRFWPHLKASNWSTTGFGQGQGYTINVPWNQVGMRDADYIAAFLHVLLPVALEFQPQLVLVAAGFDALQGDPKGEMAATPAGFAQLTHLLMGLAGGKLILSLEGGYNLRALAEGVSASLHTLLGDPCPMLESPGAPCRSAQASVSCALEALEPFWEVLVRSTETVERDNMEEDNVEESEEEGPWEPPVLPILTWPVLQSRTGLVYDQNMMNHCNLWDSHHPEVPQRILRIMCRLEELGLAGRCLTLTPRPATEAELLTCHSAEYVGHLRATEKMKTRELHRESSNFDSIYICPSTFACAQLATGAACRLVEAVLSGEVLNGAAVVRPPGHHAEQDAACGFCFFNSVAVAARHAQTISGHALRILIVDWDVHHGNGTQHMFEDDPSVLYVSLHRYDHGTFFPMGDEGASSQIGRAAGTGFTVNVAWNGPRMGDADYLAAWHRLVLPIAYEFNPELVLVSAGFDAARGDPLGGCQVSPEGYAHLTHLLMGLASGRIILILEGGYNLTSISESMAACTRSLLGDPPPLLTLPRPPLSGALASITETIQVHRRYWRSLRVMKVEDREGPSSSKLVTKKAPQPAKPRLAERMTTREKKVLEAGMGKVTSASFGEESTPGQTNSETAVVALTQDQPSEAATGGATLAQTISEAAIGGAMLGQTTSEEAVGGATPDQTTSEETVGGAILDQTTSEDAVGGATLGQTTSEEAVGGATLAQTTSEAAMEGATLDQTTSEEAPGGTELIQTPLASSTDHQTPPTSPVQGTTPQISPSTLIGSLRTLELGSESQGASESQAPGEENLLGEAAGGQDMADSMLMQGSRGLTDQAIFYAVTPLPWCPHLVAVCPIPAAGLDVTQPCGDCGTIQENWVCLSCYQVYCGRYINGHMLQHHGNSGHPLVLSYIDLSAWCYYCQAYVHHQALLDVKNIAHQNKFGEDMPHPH

[36] = molecular target: T2, Histone deacetylase 8 (Homo sapiens, UniProt Q9BY41); test: Inhibition of HDAC8 (unknown origin)
T2 sequence (Q9BY41 whole entry): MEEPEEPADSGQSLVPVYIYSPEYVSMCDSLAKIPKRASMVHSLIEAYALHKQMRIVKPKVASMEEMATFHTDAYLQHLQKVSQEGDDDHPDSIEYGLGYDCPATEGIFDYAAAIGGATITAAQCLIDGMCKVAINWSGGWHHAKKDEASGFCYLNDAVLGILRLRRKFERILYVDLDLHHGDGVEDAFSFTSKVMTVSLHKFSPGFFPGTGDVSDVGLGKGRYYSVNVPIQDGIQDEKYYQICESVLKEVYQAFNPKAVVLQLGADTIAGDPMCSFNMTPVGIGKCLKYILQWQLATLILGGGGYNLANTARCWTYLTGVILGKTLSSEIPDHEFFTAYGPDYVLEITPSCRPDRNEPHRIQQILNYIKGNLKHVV

[37] = molecular target: T1, Protein deacetylase HDAC6; test: Inhibition of human recombinant HDAC6 incubated for 15 mins by fluorescence based microplate analysis
[38] = molecular target: T2, Histone deacetylase 8; test: Inhibition of human recombinant HDAC8 incubated for 10 mins by fluorescence based microplate analysis

CCCCNNC(=O)c1ccc(Br)cc1
Activity [1]: 41.4%
AUC(0-t) at 24 h [2]: 14500 ng·h/mL
half-life [3]: 5.18 h
Tmax [4]: 2 h
AUC(0-inf) [5]: 14700 ng·h/mL
IC50 [6]: 25.3 µM
Activity [7]: inactive
IC50 [8]: 24.7 µM
inhibition in vivo at 15 mg/kg [9]: 55.6%
Activity [10]: 520.32 mm3
inhibition in vivo at 15 mg/kg [11]: 39.5%
Activity [12]: Non-Toxic
Activity [13]: Non-Toxic
Activity [14]: 50.4%
IC50 [15]: 15.4 µM
Activity [16]: 1005.32 mm3
IC50 [17]: 7.72 µM
Vz/F [18]: 7.65 (mg/kg)/(ug/ml)
Cmax [19]: 5240 ng/mL
Activity [20]: Active
Activity [21]: 0.29 g
IC50 [22]: 24.7 µM
MRT inf [23]: 3.66 h
IC50 at 72 h [24]: 95.4 µM
IC50 at 72 h [25]: 99.3 µM
CL/F [26]: 1.03 (mg/kg)/(ug/ml).hr
inhibition in vivo at 15 mg/kg [27]: 38.4%
Activity [28]: Non-Toxic
Activity [29]: Non-Toxic
Activity [30]: 30.4%
Activity [31]: 52.3%
AUMC [32]: 53.64 ug/ml.hr^2
IC50 [33]: 27.4 µM
Activity [34]: Active

Nc1ccccc1NC(=O)c1cnccn1
IC50 [35]: 34.2 µM
IC50 [36]: 28.5 µM

Nc1ccccc1NC(=O)c1cnc(NCc2ccccc2)cn1
IC50 [37]: 37.2 µM
IC50 [38]: 15.6 µM
